The source made the active and inactive calls. The rule behind the calls is not given here.

Series [1] concerns Mus musculus. Put plainly: Cardioprotective activity against isoproterenol-induced myocardial injury in C57/6J mouse model assessed as decrease in CK-MB level in serum at 15 mg/kg, ip pretreated with isoproterenol for 3 days followed by compound addition and measured after 3 days by automatic biochemical analysis. Type of series: functional, organism-based. As to conditions: time 3.0 day.

Series [2] deals with Mus musculus. The series can be described thus: Cardioprotective activity against isoproterenol-induced myocardial injury in C57/6J mouse model assessed as decrease in heart weight ratio at 15 mg/kg, ip pretreated with isoproterenol for 3 days followed by compound addition and measured after 3 days (reference value: 0.56 %). Type of series: functional. Also on record: scale not given: the % may be the effect or the level left. Particulars: time 3 day.

The test system of series [3] is Mus musculus. The series can be described thus: Cardioprotective activity against isoproterenol-induced myocardial injury in C57/6J mouse model assessed as reduction in CK value in serum at 15 mg/kg, ip pretreated with isoproterenol for 3 days followed by compound addition and measured after 3 days by automatic biochemical analysis. Type of series: functional, organism-based. Particulars: time 3.0 day.

Series [4] concerns H9c2. Put plainly: Induction of autophagy in isoproterenol-induced rat H9c2 cells assessed as downregulation of PARP1 expression by Western blot analysis. The class given is functional, cell-based. A general note: Immunoblotting shows a protein as a band on a membrane.
A short description of series [5]: Toxicity in isoproterenol-induced male C57/6J mouse model assessed as recovery of growth rate at 15 mg/kg, ip pretreated with isoproterenol for 3 days followed by compound addition and measured after 3 days. The class given is organism-based. As to conditions: in vivo, 72 h, time 3 day.
Series [6] relates to H9c2. The series can be described thus: Induction of ATP production in isoproterenol-induced rat H9c2 cells at 0.1 micromol/L by fluorescence based analysis. The class given is functional. As to conditions: dose 0.1 µmol/L.
For series [7], the system named is H9c2. Put plainly: Cytotoxicity against rat H9c2 cells assessed as cell viability at 0.001 to 50 uM under normoxia condition by CCK-8 method. The class given is toxicity, cell-based. Particulars: h9c2, 50 µM, dose 0.001-50 µM.
Series [8] deals with Mus musculus. The series can be described thus: Cardioprotective activity against isoproterenol-induced myocardial injury in C57/6J mouse model assessed as effect on cTNI level in serum at 15 mg/kg, ip pretreated with isoproterenol for 3 days followed by compound addition and measured after 3 days by automatic biochemical analysis. Type of series: functional, organism-based. Particulars: time 3.0 day.

The subject of series [9] is Mus musculus. The series can be described thus: Cardioprotective activity against isoproterenol-induced myocardial injury in C57/6J mouse model assessed as suppression of mTORC1 overexpression at 15 mg/kg, ip pretreated with isoproterenol for 3 days followed by compound addition and measured after 3 days by immunohistochemistry analysis. Type of series: functional, organism-based. Particulars: time 3.0 day.

Series [10] relates to H9c2. Put plainly: Induction of apoptosis in isoproterenol-induced rat H9c2 cells assessed as late apoptotic cells at 0.1 micromol/L by annexin V-FITC and PI staining based flow cytometry analysis (reference value: 11.49%). Type of series: toxicity, cell-based. Particulars: h9c2, 0.1 µM, dose 0.1 µmol/L. (In flow cytometry, cells or beads pass a laser one at a time.)
For series [11], the system named is H9c2. Put plainly: Induction of autophagy in isoproterenol-induced rat H9c2 cells assessed as downregulation of P62 expression by Western blot analysis. The class given is functional, cell-based.
The subject of series [12] is Mus musculus. The series can be described thus: Cardioprotective activity against isoproterenol-induced myocardial injury in C57/6J mouse model assessed as reduction in cardiac swelling size at 15 mg/kg, ip pretreated with isoproterenol for 3 days followed by compound addition and measured after 3 days (reference value: 5.15 millimeter). Particulars: time 3 day. The class given is functional.

Series [13] can be described thus: Permeability of compound in MDCK cells. The class given is ADME, cell-based, Canis lupus familiaris. Particulars: dog, read-out: permeability.
The test system of series [14] is H9c2. Put plainly: Induction of apoptosis in isoproterenol-induced rat H9c2 cells assessed as early apoptotic cells at 0.1 micromol/L by annexin V-FITC and PI staining based flow cytometry analysis (reference value: 10.37%). The class given is toxicity, cell-based. As to conditions: h9c2, 0.1 µM, dose 0.1 µmol/L.
Series [15] in a line: Passive permeability in MDCK cells. The class given is ADME, cell-based, Canis lupus familiaris. As to conditions: dog, read-out: permeability.
Series [16] concerns H9c2. Put plainly: Induction of autophagy in isoproterenol-induced rat H9c2 cells assessed as increase in LC3-I to LC3-II conversion by confocal microscopy based analysis. The class given is functional, cell-based.
Series [17] deals with H9c2. The series can be described thus: Inhibition of ROS production in isoproterenol-induced rat H9c2 cells assessed as reduction in DCF value at 0.1 uM by DCFH-DA staining based flow cytometry analysis (reference value: 371.9). The class given is functional.

As to `CCOC(=O)C1=C[C@@H](OC(CC)CC)[C@H](NC(C)=O)[C@@H](N)C1` [OSELTAMIVIR], the result in series [1], in [3], in series [4], in [8], in series [9] and in series [11] was Active. Moreover, the Activity in series [2] is on record as 0.5%; in [5], “Non-Toxic”; in [6], 38.3 nmol/mg; in [7], “Non-Toxic”; in series [10] it was 8.91%; in series [12] it was 4.65 mm. For the same compound, the Activity was determined as 2.78% in series [14] and 309.1 in series [17]. Further, the Papp in series [13] was 58 ×10⁻⁶ cm/s; in series [15], above 20 ×10⁻⁶ cm/s. Further, the outcome in series [16] was inactive.
For the compound `CCC(CC)O[C@@H]1C=C(C(=O)OCCc2ccncc2)C[C@H](N)[C@H]1NC(C)=O`, the Activity result in series [7] is reported as “Non-Toxic”.

These data come from ChEMBL document CHEMBL5614434, “A Lysosome-Targeting hNEU1 Inhibitor Treats Myocardial Infarction: A Potential Therapeutic Breakthrough” (J Med Chem, 2024).
